Results from publication PMC11648822, “Lactam Truncation Yields a Dihydroquinazolinone Scaffold with Potent Antimalarial Activity that Targets PfATP4” (Chemmedchem, 2024).
Converted amounts (≈) assume the structure as drawn. Marks after values point to notes of the source that are not given here.

Experiments:
[1] = Human HepG2 cytotoxicity assay (Cell Titre Glo); format: cell-based; settings: HepG2 cells, growth inhibition at 48 h, 4 replicate experiments, read-out: HepG2 CC50 (SD)
Source text: This assay uses Cell TitreGlo as a metabolic maker for human HepG2 cell growth and uses a protocol previously described.[32]

[2] = tested on: P. falciparum (Pf) 3D7 parasites; assay: P. falciparum LDH viability assay; format: cell-based; settings: Plasmodium falciparum, 3D7, 72 h, LDH activity at 72 h; mean and SD of 3 independent experiments
Source text: This assay is a platform assay conducted at the Walter and Eliza Hall Institute and uses a protocol previously decsribed.[30, 31]

[3] = Human liver microsome stability; format: in vitro ADME; settings: human liver microsomes; for microsomal CLint: read-out: HLM CLint
Source text: (§1) Human liver microsome stability, rat hepatocyte stability, aqueous solubility and eLogD are platform assays conducted by TCG Lifesciences and undertaken using previously described protocols.[10]

Rat hepatocyte stability = format: in vitro ADME; settings: rat hepatocytes; for hepatocyte CLint: read-out: Rat Hep CLint
Source text: as §1

[4] = Aqueous solubility (pH 7.4); format: physicochemical
Source text: as §1

eLogD shake-flask method = format: physicochemical
Source text: as §1

[5] = aqueous medium at pH 7.4, pH 7.4, aqueous buffer
[6] = aqueous medium (pH 7.4; buffer not named), pH 7.4, aqueous buffer
[7] = aqueous medium at pH 7.4 (buffer not named), pH 7.4, aqueous buffer

EC50 [2] [nM] | eLogD (eLogD shake-flask method) | microsomal CLint [3] [µL/min/mg] | hepatocyte CLint (Rat hepatocyte stability) [µL/min/1e6 cells] | Molecule | CC50 at 48 h [1] [nM] | also measured
90 |  |  |  | CN1C(=O)c2ccc3ncccc3c2NC1(C)C(=O)Nc1cncc(Cl)c1 (centres unmarked) [Compound 26, N‐(5‐Chloropyridin‐3‐yl)‐2,3‐dimethyl‐4‐oxo‐1,2,3,4‐tetrahydropyrido[2,3‐h]quinazoline‐2‐carboxamide] | > 40000 | 
 |  |  |  | 7‐Chloro‐N‐(5‐chloropyridin‐3‐yl)‐3‐methyl‐2‐(3‐morpholino‐3‐oxopropyl)‐4‐oxo‐1,2,3,4‐tetrahydroquinazoline‐2‐carboxamide [Compound 21] |  | HLM CLint [3]: 95 µL/min/mg; Rat Hep CLint (Rat hepatocyte stability): 23 μL/min/10^6 cells; solubility ([4]; pH 7.4): 41 µM
53 |  |  |  | CCN1c2cc(Cl)ccc2C(=O)N(C)C1(C)C(=O)Nc1cccc(Cl)c1 (centres unmarked) [Compound 13, 7‐Chloro‐N‐(3‐chlorophenyl)‐1‐ethyl‐2,3‐dimethyl‐4‐oxo‐1,2,3,4‐tetrahydroquinazoline‐2‐carboxamide] | > 40000 | 
30 |  |  |  | CN1C(=O)c2ccc(Cl)cc2N2CCCC12C(=O)Nc1cccc(Cl)c1 (centres unmarked) [Compound 18, 8‐Chloro‐N‐(3‐chlorophenyl)‐4‐methyl‐5‐oxo‐2,3,4,5‐tetrahydropyrrolo[1,2‐a]quinazoline‐3a(1H)‐carboxamide] | > 40000 | 
80 |  |  |  | CN1C(=O)c2ccc(Cl)cc2NC1C(=O)Nc1cccc(Cl)c1 (centres unmarked) [Compound 19, 7‐Chloro‐N‐(3‐chlorophenyl)‐3‐methyl‐4‐oxo‐1,2,3,4‐tetrahydroquinazoline‐2‐carboxamide] | > 40000 | 
220 |  |  |  | CN1C(=O)c2ccc3cccnc3c2NC1(C)C(=O)Nc1cncc(Cl)c1 (centres unmarked) [Compound 25, N‐(5‐Chloropyridin‐3‐yl)‐2,3‐dimethyl‐4‐oxo‐1,2,3,4‐tetrahydropyrido[3,2‐h]quinazoline‐2‐carboxamide] | > 40000 | 
148 |  |  |  | CN1C(=O)c2ccc(-c3cccnc3)cc2NC1(C)C(=O)Nc1cncc(Cl)c1 (centres unmarked) [Compound 29, N‐(5‐Chloropyridin‐3‐yl)‐2,3‐dimethyl‐4‐oxo‐7‐(pyridin‐3‐yl)‐1,2,3,4‐tetrahydroquinazoline‐2‐carboxamide] | > 40000 | 
74 |  | 35 | 16 | COc1ccc2c(c1)NC(C)(C(=O)Nc1cncc(Cl)c1)N(C)C2=O (centres unmarked) [Compound 34, N‐(5‐Chloropyridin‐3‐yl)‐7‐methoxy‐2,3‐dimethyl‐4‐oxo‐1,2,3,4‐tetrahydroquinazoline‐2‐carboxamide] |  | logD (eLogD shake-flask method): 2.7; solubility [4, 5]: 13.5 µM (≈ 4.87 µg/mL)
115 | 3.9^[d] | 122 | 124 | CN1C(=O)c2ccc(Cl)cc2N(C)C1(C)C(=O)Nc1cccc(Cl)c1 (centres unmarked) [Compound 12, 7‐Chloro‐N‐(3‐chlorophenyl)‐1,2,3‐trimethyl‐4‐oxo‐1,2,3,4‐tetrahydroquinazoline‐2‐carboxamide] | > 40000 | solubility [4, 6]: 2.6 µM (≈ 0.983 µg/mL); solubility [4, 7]: < 5.2 µM
54 |  | 110 | 59 | CC1(C(=O)Nc2cncc(Cl)c2)Nc2cc(Cl)ccc2-c2nccn21 (centres unmarked) [Compound 27, 8‐Chloro‐N‐(5‐chloropyridin‐3‐yl)‐5‐methyl‐5,6‐dihydroimidazo[1,2‐c]quinazoline‐5‐carboxamide] | > 40000 | logD (eLogD shake-flask method): 2.7; solubility [4, 7]: 84 µM (≈ 31.4 µg/mL)
27 | 3.3^[d] | 172 | 33 | CC1(C(=O)Nc2cncc(Cl)c2)Nc2cc(Cl)ccc2C(=O)N1C1CC1 (centres unmarked) [Compound 16, 7‐Chloro‐N‐(5‐chloropyridin‐3‐yl)‐3‐cyclopropyl‐2‐methyl‐4‐oxo‐1,2,3,4‐tetrahydroquinazoline‐2‐carboxamide] | > 40000 | solubility [4, 6]: 7 µM (≈ 2.74 µg/mL)
47 |  |  |  | CN1C(=O)c2ccc(Cl)cc2N(C)C1(C)C(=O)Nc1cncc(Cl)c1 (centres unmarked) [Compound 15, 7‐Chloro‐N‐(5‐chloropyridin‐3‐yl)‐1,2,3‐trimethyl‐4‐oxo‐1,2,3,4‐tetrahydroquinazoline‐2‐carboxamide] | > 40000 | 
808 |  |  |  | CN1C(=O)c2ccc(-c3ccn(C)n3)cc2NC1(C)C(=O)Nc1cncc(Cl)c1 (centres unmarked) [Compound 31, N‐(5‐Chloropyridin‐3‐yl)‐2,3‐dimethyl‐7‐(1‐methyl‐1H‐pyrazol‐3‐yl)‐4‐oxo‐1,2,3,4‐tetrahydroquinazoline‐2‐carboxamide] | > 40000 | 
143 |  |  |  | COc1ccc(-c2ccc3c(c2)NC(C)(C(=O)Nc2cncc(Cl)c2)N(C)C3=O)cn1 (centres unmarked) [Compound 30, N‐(5‐Chloropyridin‐3‐yl)‐7‐(6‐methoxypyridin‐3‐yl)‐2,3‐dimethyl‐4‐oxo‐1,2,3,4‐tetrahydroquinazoline‐2‐carboxamide] | > 40000 | 
198 | 2.9^[d] | 34 | 5 | CN1C(=O)c2ccc(-c3cnn(C)c3)cc2NC1(C)C(=O)Nc1cncc(Cl)c1 (centres unmarked) [Compound 32, N‐(5‐Chloropyridin‐3‐yl)‐2,3‐dimethyl‐7‐(1‐methyl‐1H‐pyrazol‐4‐yl)‐4‐oxo‐1,2,3,4‐tetrahydroquinazoline‐2‐carboxamide] | > 40000 | solubility [4, 5]: 7 µM (≈ 2.88 µg/mL)
 |  | 37 | 8.8 | CC1(C(=O)Nc2cncc(Cl)c2)Nc2cc(Cl)ccc2C2=NCCN21 (centres unmarked) [Compound 28, 8‐Chloro‐N‐(5‐chloropyridin‐3‐yl)‐5‐methyl‐2,3,5,6‐tetrahydroimidazo[1,2‐c]quinazoline‐5‐carboxamide] |  | logD (eLogD shake-flask method): 2.5; solubility [4, 7]: > 200 µM
458 |  |  |  | COc1cnc2c(c1)NC(C)(C(=O)Nc1cncc(Cl)c1)N(C)C2=O (centres unmarked) [Compound 35, N‐(5‐Chloropyridin‐3‐yl)‐7‐methoxy‐2,3‐dimethyl‐4‐oxo‐1,2,3,4‐tetrahydropyrido[3,2‐d]pyrimidine‐2‐carboxamide] | > 40000 | 
23 | 3.2^[d] | 267 | 47 | CN1c2cc(Cl)ccc2C(=O)N(C2CC2)C1(C)C(=O)Nc1cncc(Cl)c1 (centres unmarked) [Compound 17, 7‐Chloro‐N‐(5‐chloropyridin‐3‐yl)‐3‐cyclopropyl‐1,2‐dimethyl‐4‐oxo‐1,2,3,4‐tetrahydroquinazoline‐2‐carboxamide] | > 40000 | solubility [4, 6]: 28 µM (≈ 11.3 µg/mL)

Molecule | EC50 [2] [nM] | eLogD (eLogD shake-flask method) | microsomal CLint [3] [µL/min/mg] | hepatocyte CLint (Rat hepatocyte stability) [µL/min/1e6 cells] | CC50 at 48 h [1] [nM] | also measured
7‐Chloro‐N‐(5‐chloropyridin‐3‐yl)‐3‐methyl‐2‐(3‐(4‐methylpiperazin‐1‐yl)‐3‐oxopropyl)‐4‐oxo‐1,2,3,4‐tetrahydroquinazoline‐2‐carboxamide [Compound 23] |  | 2.8^[d] |  |  |  | HLM CLint [3]: 155 µL/min/mg; Rat Hep CLint (Rat hepatocyte stability): 16 μL/min/10^6 cells; solubility ([4]; pH 7.4): 9.6 µM
7‐Chloro‐N‐(5‐chloropyridin‐3‐yl)‐3‐methyl‐4‐oxo‐2‐(3‐oxo‐3‐(piperazin‐1‐yl)propyl)‐1,2,3,4‐tetrahydroquinazoline‐2‐carboxamide [Compound 22] |  | 1.7^[d] |  |  |  | HLM CLint [3]: 94 µL/min/mg; Rat Hep CLint (Rat hepatocyte stability): 7.7 μL/min/10^6 cells; solubility ([4]; pH 7.4): 178 µM
